# Source: patent US20230313318A1, “MICR[…] METHOD OF USE THEREOF” (priority 2022, published 2023)
# “And” between values parts separate entries of the source, which are not always exact repeats. Identical values can stand only once.
# Tested on: D. immitis JYD-34 (macrocyclic lactone resistant isolate)
# Design: species or system Dirofilaria immitis
# Details: in vivo
substance,measurement,setting,value
Milbemycin oxime [MBO],"JYD-34 heartworms among recovered worms, all seven dogs in Group 4",,100%
same,Number of JYD-34 Worms,,18 and 15 and 21 and 22 and 14 and 20
same,Percentage of JYD-34 Worms,po,100%
